The text below walks through data of patent US4568666A, “Carboxylalkyl peptide derivatives” (G. D. Searle & Co., priority 1984, dated 1986).

For orientation: IC50 means the concentration at which inhibition is half-maximal. Higher therefore signals weaker potency in that assay.

The target of the first experiment is T1, Human Rheumatoid Synovial Collagenase (Homo sapiens, UniProt P03956).
T1 construct: from tissue
T1 sequence (P03956 100-469): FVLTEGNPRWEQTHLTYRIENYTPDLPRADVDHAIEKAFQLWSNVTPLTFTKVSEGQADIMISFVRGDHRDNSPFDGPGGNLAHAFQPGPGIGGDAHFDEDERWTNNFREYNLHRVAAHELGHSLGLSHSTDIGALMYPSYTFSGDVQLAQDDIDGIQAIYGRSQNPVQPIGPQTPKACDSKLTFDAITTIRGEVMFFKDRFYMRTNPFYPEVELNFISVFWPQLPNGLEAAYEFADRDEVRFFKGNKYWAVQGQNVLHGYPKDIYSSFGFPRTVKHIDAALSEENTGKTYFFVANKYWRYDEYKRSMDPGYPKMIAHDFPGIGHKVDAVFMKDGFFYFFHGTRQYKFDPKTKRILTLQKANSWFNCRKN
Put plainly: Collagenase inhibition (procedure of Cawston and Barrett, acetyl 14C collagen). The format is biochemical. Conditions: 37° C., 16 hours, native acetyl 14C collagen, Tris HCl-CaCl2 pH 7.6. As to the method: This was determined following the procedure of Cawston and Barrett, Anal. Biochem., 99, 340-345 (1979) whereby the 1 mM of the inhibitor being tested or dilutions thereof are incubated at 37° C. for 16 hours with native collagen and collagenase (buffered with Tris HCl--CaCl2; pH 7.6). The collagen is acetyl ^14 C collagen. The samples are centrifuged to sediment undigested collagen and an aliquot of the radiactive supernatant removed for assay on a scintillation counter as a measure of hydrolysis. The collagenase activity in the presence of 1 mM inhibitor, or a dilution thereof, is compared to activity in a control devoid of inhibitor and the results reported as that inhibitor concentration effecting 50% inhibition of the collagenase.
Turning to `CNC(=O)[C@H](Cc1ccc(OC)cc1)NC(=O)[C@H](CC(C)C)N[C@H](CCSC)C(=O)O` [Example 7, N[1-(R)-Carboxy-3-methylthiopropyl]-L-leucyl-O-methyl-L-tyrosine N-methylamide], the IC50 stood at 5.5 µM. `CNC(=O)[C@H](Cc1ccc(O)cc1)NC(=O)[C@H](CC(C)C)N[C@H](CCNC(=O)OCc1ccccc1)C(=O)O` [Example 25, N-[3-N-(Benzyloxycarbonyl)amino-1-(R)-carboxypropyl]-L-leucyl-L-tyrosine N -Methylamide] displayed an IC50 of 1.2 µM.

`CNC(=O)[C@H](Cc1ccc(OC(C)(C)C)cc1)NC(=O)[C@H](CC(C)C)N[C@H](CCNC(=O)OCc1ccccc1)C(=O)O` [Example 28] yielded a half-maximal inhibitory concentration (IC50) of 3.6 µM.

`CNC(=O)[C@H](Cc1ccc(OCCC(C)C)cc1)NC(=O)[C@H](CC(C)C)N[C@H](CCNC(=O)OCc1ccccc1)C(=O)O` [Example 30, N[3-N-(Benzyloxycarbonyl)amino-1-(R)-carboxypropyl]-L-leucyl-O-3(methyl)butyl-L-tyrosine N-methyl amide] had an IC50 of 1.1 µM. On to `CC(C)C[C@H](N[C@H](C)C(=O)O)C(=O)NCCc1ccccc1` [Example 6, N[1-(R)-Carboxyethyl]-L-Leucine N-Phenethylamide], for which the IC50 amounted to 42 µM.

On to `CNC(=O)[C@H](Cc1ccc(OC)cc1)NC(=O)[C@H](CC(C)C)N[C@H](CCCNC(=O)OCc1ccccc1)C(=O)O` [Example 9, N-[4-N-(Benzyloxycarbonyl)amino-1-(R)-carboxybutyl]-L-leucyl-O-methyl-L-tyrosine N-Methylamide], for which the IC50 is 9.5 µM. Compound `CNC(=O)[C@H](Cc1ccc(OCc2ccccc2)cc1)NC(=O)[C@H](CC(C)C)N[C@H](C)C(=O)O` [Example 5, N[1-(R)-Carboxyethyl]-L-leucyl-O-benzyl-L-tyrosine N-Methylamide] displayed an IC50 of 1.7 µM. `CNC(=O)[C@H](Cc1ccc(OC)cc1)NC(=O)[C@H](CC(C)C)N[C@H](CCNC(=O)OCc1ccc([N+](=O)[O-])cc1)C(=O)O` [Example 14, N-[3-N-(p-Nitrobenzyloxycarbonyl)amino-1-(R)-carboxypropyl]-L-leucyl-O-methyl-L-tyrosine N-Methylamide] registered an IC50 of 1.2 µM. In turn, `CC(C)C[C@H](N[C@H](CCNC(=O)OCc1ccccc1)C(=O)O)C(=O)NCCc1ccccc1` [Example 19, N-[3-N-(Benzyloxycarbonyl)amino-1-(R)-carboxypropyl]-L-leucine N-Phenethylamide] gave an IC50 of 51 µM. In turn, “N-[3-N-(Benzyloxycarbonyl)amino-1-(R)-carboxypropyl]-L-leucyl-O-(2'-carboxyethyl-L-leucyl N-Methylamide)-L-tyrosine N-Methylamide [Example 35]” returned an IC50 of 2.4 µM. Compound `CCCCCOc1ccc(C[C@H](NC(=O)[C@H](CC(C)C)N[C@H](CCNC(=O)OCc2ccccc2)C(=O)O)C(=O)NC)cc1` [Example 29, N-[3-N-(Benzyloxycarbonyl)amino-1-(R)-carboxypropyl]-L-leucyl-O-pentyl-L-tyrosine N-Methylamide] showed an IC50 of 0.54 µM.

With `CCCCNC(=O)[C@H](C)NC(=O)[C@H](CCCC)N[C@H](C)C(=O)O` [Example 24, N-(1-(R)-Carboxyethyl)-S-norleucyl-S-alanine. N-Butylamide], half-maximal inhibition (IC50) required 19 µM.

`CNC(=O)[C@H](Cc1ccc(OC)cc1)NC(=O)[C@H](CC(C)C)N[C@H](CCCCNC(=O)[C@@H]1CCCN1C(C)=O)C(=O)O` [Example 22, N-[5-N-[N-Acetyl-L-prolyl]amino-1-(R)-carboxypentyl]-L-leucyl-O-methyl-L-tyrosine N-Methylamide] showed an IC50 of 42 µM.

Turning to `CNC(=O)[C@H](Cc1ccc(OC)cc1)NC(=O)[C@H](CC(C)C)N[C@H](CCCCNC(=O)OCc1ccccc1)C(=O)O` [Example 21, N-[5-N-(Benzyloxycarbonyl)amino-1-(R)-carboxypentyl]-L-leucyl-O-methyl-L-tyrosine N-Methylamide], the IC50 came to 11 µM. Regarding `CNC(=O)[C@H](Cc1ccc(OC)cc1)NC(=O)[C@H](CC(C)C)N[C@H](CCN)C(=O)O` [Example 13, N-[3-Amino-1-(R)-carboxypropyl]-L-leucyl-O-methyl-L-tryosine N-Methylamide], the IC50 was 91 µM. On to `CNC(=O)[C@H](Cc1ccc(OCCCCCC(C)C)cc1)NC(=O)[C@H](CC(C)C)N[C@H](CCNC(=O)OCc1ccccc1)C(=O)O` [Example 31, N-[3-N-(Benzyloxycarbonyl)amino-1-(R)-carboxypropyl]-L-leucyl-O-6(methyl)heptyl-L-tyrosine N-methyl amide], for which the IC50 was 2.5 µM.

For the compound `CNC(=O)[C@H](Cc1ccc(O)cc1)NC(=O)[C@H](CC(C)C)N[C@H](CCNC(=O)c1ccccc1)C(=O)O` [Example 15, N-[3-N-(Benzoyl)amino-1-(R)-carboxy-propyl]-L-leucyl-L-tyrosine N-Methylamide], half-maximal inhibition (IC50) required 3.1 µM. In turn, `CNC(=O)[C@H](Cc1ccc(OC2CCCC2)cc1)NC(=O)[C@H](CC(C)C)N[C@H](CCNC(=O)OCc1ccccc1)C(=O)O` [Example 33, N-[3-N-(Benzyloxycarbonyl)amino-1-(R)-carboxypropyl]-L-leucyl-O-cyclopentyl-L-tyrosine N-Methylamide] displayed an IC50 of 0.74 µM. `CCCOc1ccc(C[C@H](NC(=O)[C@H](CC(C)C)N[C@H](CCNC(=O)OCc2ccccc2)C(=O)O)C(=O)NC)cc1` [Example 26, N-(3-N-(Benzyloxycarbonyl)amino-1-(R)-carboxypropyl)-L-leucyl-O-propyl-L-tyrosine N-methyl amide]: the IC50 is 0.74 µM. `CNC(=O)[C@H](Cc1ccc(OCc2ccccc2)cc1)NC(=O)[C@H](CC(C)C)N[C@H](CCNC(=O)OCc1ccccc1)C(=O)O` [Example 32, N-[3-N-(Benzyloxycarbonyl)amino-1-(R)-carboxypropyl]-L-leucyl-O-benzyl-L-tyrosine N-Methylamide] gave a 50% inhibitory concentration (IC50) of 0.91 µM. For the compound `CNC(=O)[C@H](Cc1ccc(OC)cc1)NC(=O)[C@H](CC(C)C)N[C@H](CCNC(=O)c1ccc([N+](=O)[O-])cc1)C(=O)O` [Example 16, N-[3-N-(P-Nitrobenzoyl)amino-1-(R)-carboxypropyl]-L-leucyl-O-methyl-L-tyrosine. N-Methylamide], the midpoint of inhibition, the IC50, lay at 4.9 µM. In turn, `CNC(=O)[C@H](Cc1ccc(OC(C)C)cc1)NC(=O)[C@H](CC(C)C)N[C@H](CCNC(=O)OCc1ccccc1)C(=O)O` [Example 27, N-[3-N-(Benzyloxycarboxyl)amino-1-(R)-carbonypropyl]-L-leucyl-O-isopropyl-L-tyrosine N-methylamide] came in with an IC50 of 2.1 µM.

Compound `CCCCNC(=O)COc1ccc(C[C@H](NC(=O)[C@H](CC(C)C)N[C@H](CCNC(=O)OCc2ccccc2)C(=O)O)C(=O)NC)cc1` [Example 34, N-[3-N-(Benzyloxycarbonyl)amino-1-(R)-carboxypropyl]-L-leucyl-O-(2-aminobutyl-2-oxo)ethyl-L-tyrosine N-Methylamide] had an IC50 of 2.6 µM. Regarding “N-[3-(N'-Benzyl)carbamoyl-1-(R)-carboxypropyl]-L-leucyl-O-methyl-L-tyrosineN-Methylamide [Example 18]”, it took 1.3 µM to reach half-maximal inhibition (IC50). On to `COc1ccc(C[C@H](NC(=O)[C@H](CC(C)C)N[C@H](CCNC(=O)OCc2ccccc2)C(=O)O)C(=O)NCCc2ccccc2)cc1` [Example 36, N-[3-N-(Benzyloxycarbonyl)amino-1-(R)-carboxypropyl]-L-leucyl-O-methyl-L-tyrosine N-Phenethylamide], for which 1 µM corresponded to half-maximal inhibition (IC50).

For the next experiment, the system named is rat model of inflammatory arthritis. Put plainly: Rat model of inflammatory arthritis induced by Type II collagen (Trentham et al.). The format is in vivo. Conditions: arthritic rats' paws; Example 11 100 mg/kg i.p. twice daily for 21 days; prednisolone 0.625 mg/kg b.i.d.; area-under-the-curve data. As to the method: The therapeutic effectivness is assessed in the rat model of inflammatory arthritis described by Trentham et al. (1977). In this model, the arthritis, induced by an intradermal injection of Type II collagen, generally develops in both hind paws and the progression and severity of the lesion are monitored by physical measurements of the malleolar width and ankle extensibility.
The compound of Example II in the present specification was administered by intraperitoneal injections at 100 mg/kg twice daily for 21 days commencing seven days after the injection of the disease.
Drugs (Example 11 or prednisolone) and vehicle were administered to groups of 10 rats each. Physical measurements on the rat paws were made weekly for four weeks and consisted of (a) the distance between the medial and lateral malleolus (malleolar width) and (b) the ankle extension which was measured by applying a standard force to th rat paw and measuring the angle formed between the flexor surface of the foot and the tibia. Evidence of a therapeutic effect was denoted by a significant reduction in malleolar width and a significant increase in ankle extension. Both measurements were carried out in apparatus designed for the purpose. Area-under-the-curve data from these time course experiments was examinaed by non-parametic statistical analysis. The prednisolone standard was given at a dose of 0.625 mg/kg b.i.d. Prednisolone was chosen as a standard since steroids are known to be effective both clinically in Rheumatoid Arthritis and in animal models of arthritis.
As to `C[C@]12C=CC(=O)C=C1CC[C@@H]1[C@@H]2[C@@H](O)C[C@@]2(C)[C@H]1CC[C@]2(O)C(=O)CO` [Prednisolone, prednisolone, reference compound], the “Ankle extension, percentage change from control, experiment number 2” value was 96%; the “Ankle extension, percentage change from control, experiment number 3” value came out at 95%; the “Malleolar width, percentage change from control, experiment number 1” value was 98%; the “Malleolar width, percentage change from control, experiment number 2” value is 96%. Also, the “Malleolar width, percentage change from control, experiment number 3” value was found to be 97%.

The same experiment, now with this note: mean of experiments 1-3; Example 11 100 mg/kg i.p. twice daily; prednisolone 0.625 mg/kg b.i.d.
For `C[C@]12C=CC(=O)C=C1CC[C@@H]1[C@@H]2[C@@H](O)C[C@@]2(C)[C@H]1CC[C@]2(O)C(=O)CO` [Prednisolone, prednisolone, reference compound], the “Ankle extension, percentage change from control, mean” value is 97% and the “Malleolar width, percentage change from control, mean” value was determined as 97%.
